{"source": "paper PMC4501059", "about": "“Responding to the challenge of untreatable gonorrhea: ETX0914, a first-in-class agent with a distinct mechanism-of-action against bacterial Type II topoisomerases” (Scientific Reports, 2015)", "key": {"[1]": {"tested_on": "S. aureus AP607004 (MRQR)", "test": "MIC (CLSI broth microdilution)", "format": "cell-based"}, "S. pneumoniae ATCC49619": {"tested_on": "S. pneumoniae ATCC49619", "test": "MIC (CLSI broth microdilution)", "format": "cell-based"}, "DNA gyrase or Topo IV": {"tested_on": "DNA gyrase or Topo IV", "test": "Malachite Green based ATPase assays", "format": "biochemical"}, "[2]": {"test": "Quantitative whole-body autoradiography, tissue distribution of radioactivity", "format": "in vivo, male pigmented Lister Hood rat", "details": "rat plasma after iv infusion of 14C label", "procedure": "Quantitative whole-body autoradiography. The distribution of radioactivity in male, pigmented Lister Hood rat tissues was obtained after a single intravenous infusion over 15 minutes of ^14C-AZD0914 at 25 mg/kg (51 μmol/kg, 5 MBq/kg) using quantitative whole-body autoradiography with phosphor-imaging technology. The potential of this compound and/or its metabolites to bind to melanin-containing tissues and/or to potentially bind covalently to tissues was also evaluated. The rats were sacrificed at 5 minutes, 1 hour, 4 hours, 24 hours, 48 hours, 7 days and 21 days after the end of infusion with enflurane (Efrane®, Abbott Laboratories, USA), and frozen in acetone, cooled to -70 °C with solid CO2. The 7- and 21- day animals could not be quantified as no trace of radioactivity was observed. After removal of limbs and tail, the carcass was embedded, with left lateral side uppermost, in a 2.5% (w/v) aqueous solution of caramellosum natricum and frozen for at least 10 minutes. The animal blocks were stored at -20 °C until sectioning. Sagittal whole-body sections (30 μm) were obtained to include organs and tissues of interest. At sectioning each block was mounted in a Leica CM3600 Cryomacrotome (Leica Microsystems GmbH, Germany) maintained at approximately -20 °C. All sections were dried at -20 °C for at least 1 day prior to exposure on phosphor-imaging plates. Together with two sets of calibration standards, the sections were placed on phosphor-imaging plates, which had been pre-covered with a thin plastic film. The imaging plates were exposed for 1 to 3 days at +4 to +12 °C, enclosed in light tight cassettes in a lead shielding box to protect from environmental radiation. Following exposure, the imaging plates were scanned at a pixel size of 50 μm using FLA-7000 (FujiFilm Sverige AB, Sweden). The tissues and organs of interest were quantified using AIDA 3.5 (Raytest, Germany). The quantification limit was defined as twice the background value of the imaging plate and varied between the plates from 0.23 to 0.33 nmol/g. The various tissues and organs were identified either on the autoradiograms or on the corresponding tissue sections."}, "[3]": {"test": "Phase 1 study in healthy volunteers, oral suspension", "format": "in vivo, human", "procedure": "A Phase 1 multipart study[65] in healthy adult volunteers (informed consent with males and females of non-childbearing potential) with ETX0914 was performed under approval of the AstraZeneca Innovative Medicines Safety Review Board and the United States Food and Drug Administration. ETX0914 was administered orally as an aqueous suspension containing 1% w/v povidone K29–32, 0.2% m/v sodium lauryl sulfate and 0.25% w/v glycerin. In Part A of this study, 48 healthy subjects (ranging in age from 19 to 55 years) under fasting conditions received single ascending doses of 200–4000 mg formulated ETX0914 or placebo (6:2, ETX0914:placebo). In Part B, a second set of 18 healthy subjects (ranging in age from 22 to 48 years) were randomized into two equal dosing cohorts receiving a single dose of either 1500 mg ([…]) or 3000 mg ([…]) of ETX0914 in the fasting state and 30 minutes after a meal. Safety monitoring for both Parts A and B included vital signs, electrocardiogram, continuous telemetry, safety laboratory testing (clinical chemistry, haematology and urinalysis) and adverse events monitoring. Blood samples (1 mL) were collected at 0.5, 1, 1.5, 2, 2.5, 3, 4, 5, 6, 8, 10, 12, 24, 36, 48 and 72 h post dose. Urine samples were collected during−12 to 0 hours pre-dose, and 0 to 4, 4 to 8, 8 to 12, 12 to 24, 24 to 48, and 48 to 72 h post-dose. PK parameters were separately determined for the cohorts in each of the Part A and Part B studies. Concentrations of ETX0914 in the plasma and urine were quantified by LC-MS/MS. Plasma PK parameters were calculated using Phoenix WinNonLin software.\nAZD0914 was analyzed in mouse, rat, dog, monkey plasma using a qualified method which was later validated for human plasma analysis. The validated human method is described below and is representative of the approach taken in other species. AZD0914 was determined in human plasma prepared with K2EDTA as an anticoagulant. AZD0914 and an internal standard (^13C2, ^15N2 AZD0914) were extracted from plasma with tert- butyl methyl ether. After evaporating to dryness under a stream of nitrogen, the residue was reconstituted and quantitated by reverse phase HPLC-MS/MS against a standard curve from 1.00 to 5000 ng/ml. Separation was achieved using a gradient which went from 55% to 85% methanol:acetonitrile (1:1) containing 0.2% formic acid as mobile phase B and 0.2% formic acid in water as mobile phase A at a flow rate of 0.60 ml/min through a Phenomonex Gemini C18 column (50 x 2.0 mm column, […]) heated using a Shimadzu CTO-20AC set to 40 °C. AZD0914 was detected in multiple reaction monitoring (MRM) mode by positive ion electrospray ionization using a Sciex API5500 (Toronto, Canada) mass spectrometer. The ion spray voltage was set to 5500 V and turboionspray temperature was 650 °C. AZD0914 was quantitated using the MRM transition 488.2 → 348.2 using a collision energy of 29 eV. The internal standard, (^13C2, ^15N2 AZD0914), was monitored using identical conditions except for the MRM transition of 492.2 → 348.2."}, "USA300 NRS384": {"tested_on": "USA300 NRS384", "test": "MIC (modal, CLSI broth microdilution)", "format": "cell-based, S. aureus", "details": "Staphylococcus aureus, read-out: Modal MIC"}, "Neisseria gonorrhoeae": {"tested_on": "Neisseria gonorrhoeae", "details": "cited from earlier work"}, "[4]": {"tested_on": "Coagulase-negative Staphylococci", "parameters": "method as in ref 2 (supplement)", "details": "1923 tested; ref 2 (supplement); cited from earlier work"}, "Chlamydia trachomatis": {"tested_on": "Chlamydia trachomatis", "parameters": "method as in ref 3 (supplement)", "details": "10 tested; ref 3 (supplement); cited from earlier work"}, "[5]": {"details": "both sexes, human, plasma, oral, 3000 mg, fasting"}, "[6]": {"details": "473 tested, ref 4-6 (supplement)"}}, "note": "Where two headings read alike, the source gives them in different places."}
{"smiles": "C[C@@H]1CN2c3c(cc4c(N5C(=O)OC[C@@H]5C)noc4c3F)CC3(C(=O)NC(=O)NC3=O)[C@H]2[C@H](C)O1", "note": "[ETX0914]", "values": [{"measurement": "MIC: S. aureus AP607004 (MRQR)", "setting": "[1]", "value": 0.5, "unit": "µg/mL"}, {"measurement": "MIC: S. pneumoniae ATCC49619", "setting": "S. pneumoniae ATCC49619", "value": 0.125, "unit": "µg/mL"}, {"measurement": "inhibition of ATPase activity", "setting": "DNA gyrase or Topo IV", "value": "lack of inhibition of ATPase activity"}, {"measurement": "share of circulating radioactivity in plasma accounted for by parent", "setting": "[2]", "value": "~ 90%"}, {"measurement": "increase in AUC with high fat meal", "setting": "[3]; 3000 mg", "value": "> 40", "unit": "%"}, {"measurement": "serious adverse events", "setting": "[3]; Phase 1, 200–4000 mg", "value": "No serious adverse events"}, {"measurement": "mild and non-serious AEs", "setting": "[3]; Phase 1, reversible in all subjects", "value": "transient dysgeusia and headache"}, {"measurement": "AUC", "setting": "[3]; [5]", "value": 195, "unit": "µg·h/mL"}, {"measurement": "Cmax", "setting": "[3]; [5]", "value": 22900, "unit": "ng/mL"}, {"measurement": "Tmax", "setting": "[3]; both sexes, human, plasma, oral, 3000 mg, fasting, read-out: Tmax", "value": 2.2, "unit": "h"}, {"measurement": "AUC", "setting": "[3]; both sexes, human, plasma, oral, 3000 mg, preceded by a high fat meal", "value": 281, "unit": "µg·h/mL"}, {"measurement": "Cmax", "setting": "[3]; both sexes, human, plasma, oral, 3000 mg, with food", "value": 24000, "unit": "ng/mL"}, {"measurement": "Tmax", "setting": "[3]; both sexes, human, plasma, oral, 3000 mg, with food, read-out: Tmax", "value": 4, "unit": "h"}, {"measurement": "half-life", "setting": "[3]; both sexes, human, plasma, oral, 8 to 72 hour post-dose period", "value": "5.2 to 6.25", "unit": "h"}, {"measurement": "Tmax", "setting": "[3]; both sexes, human, plasma, po, fasting, 200–4000 mg single oral dose, read-out: median Tmax", "value": "1.5 to 2.26", "unit": "h"}, {"measurement": "oral dose excreted as parent drug in urine", "setting": "[3]; both, human, urine, po", "value": "Less than 5%"}, {"measurement": "margin of human AUC to NOAEL in dog", "setting": "[3]; highest 4000 mg dose", "value": 4.8, "unit": "fold"}, {"measurement": "margin of human AUC to NOAEL in rat", "setting": "[3]; highest 4000 mg dose", "value": 6.4, "unit": "fold"}, {"measurement": "margin of human Cmax to NOAEL in dog", "setting": "[3]; highest 4000 mg dose", "value": 3.7, "unit": "fold"}, {"measurement": "margin of human Cmax to NOAEL in rat", "setting": "[3]; highest 4000 mg dose", "value": 4.9, "unit": "fold"}, {"measurement": "doses at which the efficacious AUC was exceeded", "setting": "[3]; human AUC0-24h versus dose", "value": "> 800", "unit": "mg"}, {"measurement": "MIC", "setting": "USA300 NRS384", "value": 0.25, "unit": "µg/mL"}, {"measurement": "MIC90", "setting": "Neisseria gonorrhoeae; [6]", "value": "0.125^4-6 µg/ml"}, {"measurement": "MIC Range", "setting": "Neisseria gonorrhoeae; [6]", "value": "0.004 to 0.25", "unit": "µg/mL"}, {"measurement": "MIC90, gonococcal infection (N. gonorrhoeae)", "setting": "Neisseria gonorrhoeae; Table 2, first entry of the cell (ciprofloxacin: 250 mg UID line)", "value": 0.12, "unit": "µg/mL"}, {"measurement": "MIC90", "setting": "[4]", "value": "0.25^2 µg/ml"}, {"measurement": "MIC Range", "setting": "[4]", "value": "0.015 to 2.0", "unit": "µg/mL"}, {"measurement": "MIC90", "setting": "Chlamydia trachomatis", "value": "0.25^3 µg/ml"}, {"measurement": "MIC Range", "setting": "Chlamydia trachomatis", "value": "0.06 to 0.5", "unit": "µg/mL"}]}
